In US11666558B2, “Methods of treating intraocular pressure with activators of Tie-2” (EyePoint Pharmaceuticals, Inc., priority 2015, dated 2023):
Like-named read-outs stand apart in the source and are kept apart here.

Experiment: Plasma concentrations and pharmacokinetic parameters after topical ocular, subcutaneous and intravitreal administration
Format: in vivo, New Zealand White rabbits
Conditions: plasma, plasma; for AUC(0-t): read-out: AUClast (± SE); for concentration at 0.5 hr: 0.50 hr
Procedure: To measure the concentration of Compound 1 in plasma and ocular tissues following topical ocular, subcutaneous, and intravitreal administration, New Zealand White rabbits were administered Compound 1, and plasma and ocular samples were collected at pre-determined time points. Compound 1 formulations were prepared fresh on each day of dosing.
New Zealand White rabbits weighing 2.5 to 3.5 kg were used on this study. Rabbits were housed one per cage. Animals were not fasted and only healthy animals with no ocular illness were used. Two rabbits per group were sacrificed at each of four ocular tissue sampling time points for a total of eight rabbits per group.
Animals were anesthetized for ocular (topical) and intravitreal dosing following the 12IA7 IACUC protocol. Each rabbit received a bolus dose of test formulation either via topical ocular administration 3 times daily on Days 1 and 2 (at 0, 6, and 12 hours), and once on Day 3 (at 0 hours) into both eyes; via intravitreal administration into both eyes once on Day 1 (at 0 hours); or via subcutaneous administration 2 times daily on Days 1 and 2 (at 0 and 8 hours) and once daily on Day 3 (at 0 hours). Doses were given within an approximately 1 hour window each day where applicable.
Each blood sample was collected on Day 3 post dose at pre-determined time points from the rabbits via an ear vessel and placed into chilled polypropylene tubes containing sodium heparin as an anticoagulant. Samples were spun by centrifuge at 4° C. and 3,000×g for 5 minutes. Samples were maintained chilled throughout processing. Each plasma sample was placed on dry ice and stored in a freezer at −60° C. to −80° C. pending bioanalysis.
An LC-MS/MS method was developed for the determination of Compound 1 in rabbit aqueous tissues (plasma, aqueous and vitreous humor) and solid ocular tissue samples. A pre-study standard curve was analyzed to determine the specificity, range, and lower limit of quantitation of the method. Plasma and tissue homogenate study samples were extracted and analyzed. All the samples were treated identically to the standards.
One eight-point standard curve was used in each analytical batch. To be accepted, each batch must have had at least five of eight standards with accuracy within ±20% of nominal, except at the lower limit of quantification (LLOQ), where ±25% was acceptable.
Pharmacokinetic parameters were calculated from the time course of the plasma concentration. The maximum plasma concentration (Cmax) and time to the maximum plasma drug concentration (Tmax) were the observed values for each concentration-time profiles. The area under the plasma drug concentration-time curve (AUClast, with last being from time 0 to the last quantifiable point) was calculated using the trapezoidal formula. The mean residence time MRTlast was calculated as a ratio of AUMClast (area under the first movement curve) to AUClast.

[1] = New Zealand White, rabbit, other: intravitreal, 1.54 mg/kg, intravitreal 2.5 mg/eye (~1.54 mg/kg), suspension
[2] = New Zealand White, rabbit, other: intravitreal, 2.5 mg, intravitreal 2.5 mg/eye (~1.54 mg/kg), suspension
[3] = New Zealand White, rabbit, other: intravitreal, 2.5 mg/eye, intravitreal 2.5 mg/eye (~1.54 mg/kg), suspension, read-out: plasma Average
[4] = New Zealand White, rabbit, other: intravitreal, 2.5 mg/eye, intravitreal 2.5 mg/eye (~1.54 mg/kg), suspension, read-out: plasma Conc., individual rabbit
[5] = New Zealand White, rabbit, sc, 5 mg/kg, subcutaneous 5 mg/kg/dose, suspension
[6] = New Zealand White, rabbit, subcutaneous, 5 mg/kg/dose, subcutaneous 5 mg/kg/dose, suspension, read-out: plasma Average
[7] = New Zealand White, rabbit, subcutaneous, 5 mg/kg/dose, subcutaneous 5 mg/kg/dose, suspension, read-out: plasma Conc., individual rabbit
[8] = intravitreal suspension, normalized by 1.54 mg/kg
[9] = subcutaneous suspension, normalized by 5 mg/kg

COC(=O)N[C@@H](Cc1ccccc1)C(=O)N[C@@H](Cc1ccc(NS(=O)(=O)O)cc1)c1csc(-c2cccs2)n1 [Compound 1 free acid]
AUC(0-inf) [1]: 746 ng·h/mL | Cmax [1]: 25.3 ng/mL | MRT last [1]: 19.1 h | half-life [1]: 990 min | AUC(0-t) [1]: 707 ng·h/mL | Tmax (New Zealand White, rabbit, other: intravitreal, 1.54 mg/kg, intravitreal 2.5 mg/eye (~1.54 mg/kg), suspension, read-out: tmax): 60 min | AUC(0-inf) [2]: 746 ng·h/mL | Cmax [2]: 25.3 ± 9.3 ng/mL | MRT last [2]: 19.1 h | half-life [2]: 990 min | AUC(0-t) [2]: 707 ± 53.1 ng·h/mL | Tmax (New Zealand White, rabbit, other: intravitreal, 2.5 mg, intravitreal 2.5 mg/eye (~1.54 mg/kg), suspension, read-out: tmax): 60 min | concentration at 1 h (New Zealand White, rabbit, other: intravitreal, 2.5 mg/eye, intravitreal 2.5 mg/eye (~1.54 mg/kg), suspension, 1.0 hr, read-out: plasma Average): 25.3 ng/mL | concentration at 3 h [3]: 24.4 ng/mL | concentration at 3 h [4]: 28.4 ng/mL | concentration at 6 h [3]: 23.1 ng/mL | concentration at 6 h [4]: 22 ng/mL | concentration at 24 h [3]: 12.3 ng/mL | concentration at 24 h [4]: 9.96 ng/mL | concentration at 48 h [3]: 3.63 ng/mL | concentration at 48 h [4]: 2.69 ng/mL | concentration at 72 h [3]: 1.65 ng/mL | concentration at 72 h [4]: 1.83 ng/mL | AUC(0-t) [5]: 864 ± 69 ng·h/mL | Tmax (New Zealand White, rabbit, sc, 5 mg/kg, subcutaneous 5 mg/kg/dose, suspension, read-out: tmax): 15 min | Tmax (New Zealand White, rabbit, sc, 5 mg/kg, subcutaneous administration, suspension, read-out: Mean plasma Tmax (converted)): 15 min | AUC(0-inf) [5]: 1200 ng·h/mL | Cmax [5]: 395 ± 170 ng/mL | MRT last [5]: 1.58 h | half-life [5]: 127 min | concentration at 0.25 hr (New Zealand White, rabbit, subcutaneous, 5 mg/kg/dose, subcutaneous 5 mg/kg/dose, suspension, 0.25 hr, read-out: plasma Average): 395 ng/mL | concentration at 0.5 hr [6]: 337 ng/mL | concentration at 0.5 hr [7]: 272 ng/mL | concentration at 1 hr (New Zealand White, rabbit, subcutaneous, 5 mg/kg/dose, subcutaneous 5 mg/kg/dose, suspension, 1.0 hr, read-out: plasma Average): 295 ng/mL | concentration at 1 hr (New Zealand White, rabbit, subcutaneous, 5 mg/kg/dose, subcutaneous 5 mg/kg/dose, suspension, 1.0 hr, read-out: plasma Conc., individual rabbit): 300 ng/mL | concentration at 2 hr [6]: 206 ng/mL | concentration at 2 hr [7]: 194 ng/mL | concentration at 4 hr [6]: 110 ng/mL | concentration at 4 hr [7]: 111 ng/mL | Dose normalized AUClast [8]: 459 kg·ng·h/mL/mg | Dose normalized AUC∞ [8]: 484 kg·ng·h/mL/mg | Dose normalized AUClast (intravitreal suspension, normalized by 1.54 mg/kg, listed as Compound 1 (free acid)): 459 ± 34.5 kg·ng·h/mL/mg | Dose normalized AUClast [9]: 173 kg·ng·h/mL/mg | Dose normalized AUC∞ [9]: 240 kg·ng·h/mL/mg | Dose normalized AUClast (subcutaneous suspension, normalized by 5 mg/kg, listed as Compound 1 (free acid)): 173 ± 13.8 kg·ng·h/mL/mg
